Key:
[1] = test system: Mus musculus; assay: Dose required for oral activity against mice catalepsy induced by 3 mg/kg haloperidol after s.c. administration; assay type: functional
[2] = molecular target: T1, Adenosine receptor A1 (Rattus norvegicus, UniProt P25099); assay: biochemical
T1 sequence (P25099 whole entry): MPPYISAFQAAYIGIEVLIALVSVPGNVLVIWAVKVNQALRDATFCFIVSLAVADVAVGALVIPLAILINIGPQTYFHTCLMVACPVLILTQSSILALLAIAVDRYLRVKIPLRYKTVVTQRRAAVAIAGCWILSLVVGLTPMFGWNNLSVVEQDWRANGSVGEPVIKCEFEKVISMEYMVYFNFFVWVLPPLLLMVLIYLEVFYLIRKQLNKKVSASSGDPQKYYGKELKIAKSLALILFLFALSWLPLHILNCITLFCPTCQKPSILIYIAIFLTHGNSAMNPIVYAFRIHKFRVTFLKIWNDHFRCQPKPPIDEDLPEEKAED
Description: Binding affinity against Adenosine A1 receptor from rat cerebral cortex was determined using [3H]DPCPX as radioligand

[3] = molecular target: Adenosine receptor A2a (Rattus norvegicus, UniProt P30543)
Adenosine receptor A2a, sequence (P30543 whole entry): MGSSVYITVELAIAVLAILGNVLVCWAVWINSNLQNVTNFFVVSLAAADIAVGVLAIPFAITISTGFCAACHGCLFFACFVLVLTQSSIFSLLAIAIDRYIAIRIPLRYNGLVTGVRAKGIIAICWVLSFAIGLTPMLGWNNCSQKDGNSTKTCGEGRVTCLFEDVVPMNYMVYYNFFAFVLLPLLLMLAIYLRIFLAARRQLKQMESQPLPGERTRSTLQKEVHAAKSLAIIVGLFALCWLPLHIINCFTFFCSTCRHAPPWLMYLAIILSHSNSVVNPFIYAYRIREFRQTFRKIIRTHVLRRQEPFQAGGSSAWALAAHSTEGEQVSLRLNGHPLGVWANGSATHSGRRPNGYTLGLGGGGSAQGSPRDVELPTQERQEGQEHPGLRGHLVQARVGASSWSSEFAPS
Description: Binding affinity against Adenosine A2a receptor determined using [3H]ZM-241385 as radioligand

| SMILES | Dose [1] [mg/kg] | Ki [2] [nM] | Ki [3] [nM] |
| --- | --- | --- | --- |
| CN(CCN1CCN(c2ccc(F)cc2F)CC1)c1cc2nc(-c3ccco3)nn2c(N)n1 | 3 | 750 | – |
| Nc1nc(N2CCN(c3c(F)cc(F)cc3F)CC2)nc2nc(-c3ccco3)nn12 | – | – | 29 |
| CN(CCN1CCN(c2c(F)cc(F)cc2F)CC1)c1cc2nc(-c3ccco3)nn2c(N)n1 | – | 790 | 24 |
| Nc1nc(NCCN2CCN(c3ccccc3)CC2)nc2nc(-c3ccco3)nn12 | >10 | > 500 | 22 |
| CN(CCN1CCN(c2ccc(F)cc2F)CC1)c1nc(N)n2nc(-c3ccco3)nc2n1 | 3 | – | – |
| Nc1nc(NCCCN2CCN(c3ccccc3)CC2)nc2nc(-c3ccco3)nn12 | – | > 500 | – |
| Nc1nc(NCCN2CCN(c3ccc(F)cc3F)CC2)nc2nc(-c3ccco3)nn12 | 10 | 1100 | – |
| Nc1nc(NCCN2CCN(c3ccc(F)cc3F)CC2)cc2nc(-c3ccco3)nn12 | >10 | 2600 | 55 |
| Nc1nc(NCCCN2CCN(c3c(F)cc(F)cc3F)CC2)nc2nc(-c3ccco3)nn12 | – | > 500 | 100 |
| Nc1nc(NCCN2CCN(c3c(F)cc(F)cc3F)CC2)nc2nc(-c3ccco3)nn12 | – | > 500 | 24 |
| Nc1nc(NCCN2CCN(c3c(F)cc(F)cc3F)CC2)cc2nc(-c3ccco3)nn12 | – | > 500 | 92 |
| Nc1nc(NCCCN2CCN(c3ccc(F)cc3F)CC2)nc2nc(-c3ccco3)nn12 | – | > 500 | 93 |
| CN(CCN1CCN(c2ccccc2)CC1)c1nc(N)n2nc(-c3ccco3)nc2n1 | 3 | 1500 | 11 |
